From US9486461B2, “Methods and compositions for inducing apoptosis by stimulating ER stress” (UNIVERSITY OF SOUTHERN CALIFORNIA, priority 2007, dated 2016) come the findings set out here.

Where “and” joins values, the source holds several entries; their conditions need not be identical. Equal entries are not always repeated.

Data set [1] relates to CHOP, GRP78, caspase 4 in U251 glioblastoma cells. As to the kind of experiment: Western blot of ER stress indicators in U251 cells. The following applies: for CHOP expression, time kinetics: U251, 50 μmol/L, 4 h up to 24 h. It counts as cell-based, human. The protocol: U251 glioblastoma cells were cultured in the presence of 1 μM thapsigargin (Tg) or 60 μM DMC for various times, as indicated. Total cell lysates were prepared and analyzed by Western blot with specific antibodies to the ER stress proteins GRP78, CHOP, and caspase 4 (Casp 4). Actin was used as a loading control.
Shown are (A) time kinetics at 50 μM of each drug, and (B) concentration dependence after 15 hours of incubation.
Shown are (FIG. 7A) time kinetics at 50 μM of each drug, and (FIG. 7B), concentration dependence after 15 hours of incubation.
U251 glioblastoma cells were cultured for 24 hours in the presence of increasing concentrations of (A) bortezomib (BZM) or (B) DMC. Total cell lysates were analyzed by Western blot with specific antibodies to ubiquitin, GRP78, CHOP, and caspase 4. Actin was used as a loading control.
Total cell lysates were prepared by lysis of cells with radioimmunoprecipitation assay buffer (28), and protein concentrations were determined using the bicinchoninic acid protein assay reagent (Pierce, Rockford, Ill.). For Western blot analysis, 50 Ag of each sample were processed as described (29). The primary antibodies were purchased from Cell Signaling Technologies (Beverly, Mass.), Cayman Chemical (Ann Arbor, Mich.), or Santa Cruz Biotechnology, Inc. (Santa Cruz, Calif.) and used according to the manufacturer's recommendations. The secondary antibodies were coupled to horseradish peroxidase and detected by chemiluminescence using the SuperSignal West substrate from Pierce. All immunoblots were repeated at least once to confirm the results.
Total cell lysates were prepared and analyzed by Western blot analysis as described earlier (19). Immunohistochemical analysis of protein expression in tumor tissues was performed with the use of the Vectastain avidin-biotin complex method kit (Vector Laboratories) as described previously (32). The primary antibodies were purchased from Cell Signaling Technology or Santa Cruz Biotechnology, Inc. and used according to the manufacturers' recommendations. All immunoblots and stainings were repeated at least once to confirm the results.

Data set [2] has as its system U251 glioblastoma cells. As to the kind of experiment: Colony forming assay, U251. It counts as cell-based, human. The following applies: U251, 30 and 50 μmol/L, 48 hours. The protocol: U251 glioblastoma cells were treated with different drugs, and various parameters of cell growth and cell death were comparatively analyzed. As controls, cells remained either non-treated (Co) or were treated with the solvent DMSO alone. (FIG. 8A) Cells were treated with 30 or 50 μM DMC for 48 hours and the effects on cell growth/survival and on cell death were determined by various assays. […] Below the three panels, the expression levels of the ER stress indicators CHOP, GRP78, and caspase 4 at the end of the 48 hour drug treatment is shown, as determined by Western blot analysis with specific antibodies (actin served as a loading control. (FIG. 8B) Cells were treated with various concentrations of different drugs for 48 hours, as indicated, and cell death was measured with the cell death ELISA kit. (FIG. 8C) Cells were treated with DMC or various coxibs and traditional NSAIDs for 48 hours, as indicated, and cell growth and survival was determined with the conventional MTT assay (control, non-treated cells were set at 100%). […] In parallel, the expression levels of CHOP and GRP78 protein were determined by Western blot analysis.
Twenty-four hours after transfection with small interfering RNA (siRNA), the cells were seeded into six-well plates at 200 cells per well. […] Colonies were visualized by staining for 4 h with 1% methylene blue (in methanol) and then counted.

Data set [3] is described as follows: Drug concentrations in plasma and tumor tissue by LC-MS. It counts as in vivo. Conditions: 50 h; for Tumor tissue levels (approximately μmol/L) / Tumor tissue levels: U87 tumor tissue; for Maximum plasma levels: tumor-bearing nude mice. How it is done: Blood was collected in heparinized syringes using cardiac puncture of nude mice. The blood was allowed to settle at room temperature for 30 min followed by centrifugation at 2,000 rpm for 5 min at 4° C. The plasma was separated from the cells and transferred to a fresh tube. […] After thorough vortexing, plasma proteins were precipitated using 425 μL acetonitrile and vortexing for 1 min. The entire mixture was centrifuged at 4,500 rpm for 5 min to separate the protein precipitate, and 400 μL of the supernatant were transferred to a fresh tube. The sample was evaporated using a steady stream of air, and the dried residue was reconstituted using 150 μL of mobile phase consisting of 80:20 (v/v) methanol:10 mmol/L ammonium acetate (pH 4.5). To remove any undissolved precipitates, the samples were again centrifuged at 4,500 rpm for 5 min, and the supernatant was transferred to a fresh tube. Ten microliters of each sample were analyzed in duplicate by liquid chromatography mass spectrometry.
To determine the amount of drug in each sample, an Agilent 1100 high-pressure liquid chromatography system (Agilent Technologies, Santa Clara, Calif.) coupled onto a Sciex API 3000 triple quadruple tandem mass spectrometer (Applied Biosystems, Foster City, Calif.) was used. To separate the analytes, a Thermo HyPURITY C18 column (50×4.6 mm, 3 micron; Thermo Fisher Scientific, Inc., Waltham, Mass.) was used. The mobile phase consisted of 80:20 (v/v) methanol:10 mmol/L ammonium acetate (pH 4.5). […] The analytes were then introduced into the Sciex API 3000, which was set in the negative ion mode. […] The lower level of quantification of this assay was established at 5 ng/mL.

Data set [4] has as its system U251 glioblastoma cells. Put plainly: Cell death ELISA, U251. It counts as cell-based, human. The following applies: U251, 48 hours, concentrations of up to 100 μmol/L. How it is done: U251 glioblastoma cells were treated with different drugs, and various parameters of cell growth and cell death were comparatively analyzed. As controls, cells remained either non-treated (Co) or were treated with the solvent DMSO alone. (FIG. 8A) Cells were treated with 30 or 50 μM DMC for 48 hours and the effects on cell growth/survival and on cell death were determined by various assays. […] Below the three panels, the expression levels of the ER stress indicators CHOP, GRP78, and caspase 4 at the end of the 48 hour drug treatment is shown, as determined by Western blot analysis with specific antibodies (actin served as a loading control. (FIG. 8B) Cells were treated with various concentrations of different drugs for 48 hours, as indicated, and cell death was measured with the cell death ELISA kit. (FIG. 8C) Cells were treated with DMC or various coxibs and traditional NSAIDs for 48 hours, as indicated, and cell growth and survival was determined with the conventional MTT assay (control, non-treated cells were set at 100%). MTT assays were performed in 96-well plates with the use of 3.0-8.0×10^3 cells per well as described in detail elsewhere (34). In parallel, the expression levels of CHOP and GRP78 protein were determined by Western blot analysis.
Apoptosis in cell cultures in vitro was determined by using the Cell Death Detection ELISA kit (Roche Diagnostics, Indianapolis, Ind.) according to the manufacturer's instructions. This immunoassay specifically detects the histone region (H1, H2A, H2B, H3, and H4) of mononucleosomes and oligonucleosomes that are released during apoptosis. Ninety-six-well plates were seeded with 1,000 cells per well and read at 405 nm in a Microplate Autoreader (Model EL 311 SX; Bio-Tek Instruments, Inc., Winooski, Vt.).

Setting [5] is: 30 mg/kg/d, average of two measurements.
Where [6] appears, read: 30 mg/kg/d, half dose every 12 h into the stomach, average of two measurements.
The mark [7] stands for this setting: 90 mg/kg/d, average of two measurements.
Setting [8] is: 90 mg/kg/d, half dose every 12 h into the stomach, average of two measurements.
Where [9] appears, read: 150 mg/kg/d, average of two measurements.
Setting [10] is: 150 mg/kg/d, half dose every 12 h into the stomach, average of two measurements.
Where [11] appears, read: 180 mg/kg/d, average of two measurements.
The mark [12] stands for this setting: 180 mg/kg/d, half dose every 12 h into the stomach, average of two measurements.

For `Cc1ccc(C)c(-c2cc(C(F)(F)F)nn2-c2ccc(S(N)(=O)=O)cc2)c1` [DMC, 4-[5-(2,5-dimethylphenyl)-3-(trifluoromethyl)-1H-pyrazol-1-yl]benzenesulfonamide], the “CHOP expression, time kinetics” value in data set [1] was “pronounced induction of CHOP”. The “increase in CHOP or GRP78 protein, concentration dependence” value in data set [1] (U251, 15 hours, concentrations up to 75 or 100 μmol/L) is “potently induced”. For the same compound, the “expression of GRP78 and CHOP” value in data set [1] (U251, increasing concentrations, 24 hours) was “strong induction of GRP78 and CHOP”. The “time at which activation (cleavage) of caspase-4 was first noted” value in data set [1] (U251, 1 μM thapsigargin or 60 μM DMC) was around 24 h. In data set [1] (U251, 1 μM thapsigargin or 60 μM DMC, prominent increase at 6 h and thereafter), the “CHOP and GRP78 expression levels” value is “substantially elevated”. Also, the “survival in colony-forming assays” value in the data set on U251 glioblastoma cells [2] is “greatly reduced survival”. Further, the “Tumor tissue levels (approximately μmol/L)” value in data set [3] (30 mg/kg/d) is around 0.021 µmol/L; in data set [3] (90 mg/kg/d), around 0.037 µmol/L; in data set [3] (150 mg/kg/d) it was around 0.099 µmol/L; in data set [3] (180 mg/kg/d) it was around 0.280 µmol/L. For the same compound, the Tumor tissue levels in data set [3] (setting [5]) was 8.27 ng/mg; in data set [3] (setting [7]), 14.44 ng/mg; in data set [3] (setting [9]), 39.04 ng/mg; in data set [3] (setting [11]), 110.42 ng/mg. The Maximum plasma levels in data set [3] (30 mg/kg/d) is 7.6 µmol/L; in data set [3] (setting [6]), 3,035 μg/L; in data set [3] (90 mg/kg/d), 8.0 µmol/L; in data set [3] (setting [8]), 3,190 μg/L; in data set [3] (150 mg/kg/d), 23.8 µmol/L; in data set [3] (setting [10]) it was 9,500 μg/L. Besides, the Maximum plasma levels was 45 µmol/L and 45.5 µmol/L in data set [3] (180 mg/kg/d); 18,200 μg/L in data set [3] (setting [12]).
In the case of `Cc1ccc(-c2cc(C(F)(F)F)nn2-c2ccc(S(N)(=O)=O)cc2)cc1` [celecoxib, 4-[5-(4-methylphenyl)-3-(trifluoromethyl)-1H-pyrazol-1-yl]benzenesulfonamide], the “CHOP expression, time kinetics” value in data set [1] is on record as “noticeable lower compared with DMC”. In the data set with U251 glioblastoma cells [4], the “induction of cell death/apoptosis (cell death ELISA)” value was “able to induce cell death/apoptosis”. Further, the “Tumor tissue levels (approximately μmol/L)” value in data set [3] (30 mg/kg/d) was around 0.046 µmol/L; in data set [3] (90 mg/kg/d), around 0.116 µmol/L; in data set [3] (150 mg/kg/d), around 0.161 µmol/L; in data set [3] (180 mg/kg/d), around 0.25 µmol/L; in data set [3] (180 mg/kg/d, listed as Cxb) it was around 0.249 µmol/L. Moreover, the Tumor tissue levels in data set [3] (setting [5]) amounted to 17.53 ng/mg; in data set [3] (setting [7]), 44.03 ng/mg; in data set [3] (setting [9]) it was 61.23 ng/mg; in data set [3] (setting [11]) it was 94.78 ng/mg. The Maximum plasma levels in data set [3] (30 mg/kg/d) is 18.2 µmol/L; in data set [3] (setting [6]), 6,950 μg/L; in data set [3] (90 mg/kg/d), 24.8 µmol/L; in data set [3] (setting [8]) it was 9,450 μg/L; in data set [3] (150 mg/kg/d), 36.8 µmol/L; in data set [3] (setting [10]), 14,000 μg/L. For the same compound, the Maximum plasma levels was 45 µmol/L in data set [3] (180 mg/kg/d); 44.6 µmol/L in data set [3] (180 mg/kg/d, listed as Cxb); 17,000 μg/L in data set [3] (setting [12]).
